According to ChEMBL document CHEMBL1138045 (J Med Chem, 2006):

What was measured:
[1] = target: Mitogen-activated protein kinase 8 (Homo sapiens, UniProt P45983); assay: Inhibition of JNK1
[2] = target: Mitogen-activated protein kinase 9 (Homo sapiens, UniProt P45984); assay: Inhibition of JNK2
[3] = Half life in rat at 5 mg/kg, po; type: ADME, organism-based; set-up: dose 5 mg/kg, route oral; settings: in vivo
[4] = Cmax in rat at 5 mg/kg, po; type: ADME, organism-based; set-up: dose 5 mg/kg, route oral; settings: in vivo
[5] = Oral bioavailability in rat at 5 mg/kg, po; type: ADME, organism-based; settings: in vivo
[6] = Half life in mouse microsomes; type: ADME, Microsome
[7] = AUC in rat at 5 mg/kg, po; type: ADME, organism-based; set-up: dose 5 mg/kg, route oral; settings: plasma
[8] = target: c-Jun N-terminal kinase, JNK (Homo sapiens, UniProt P45983+P53779+P45984); assay: Inhibition of cJun phosphorylation in HepG2 cells; type: functional, cell-based
[9] = target: T1, Calcium/calmodulin-dependent protein kinase type IV (Homo sapiens, UniProt Q16566); assay: Inhibition of CaMK4
T1 sequence (Q16566 whole entry): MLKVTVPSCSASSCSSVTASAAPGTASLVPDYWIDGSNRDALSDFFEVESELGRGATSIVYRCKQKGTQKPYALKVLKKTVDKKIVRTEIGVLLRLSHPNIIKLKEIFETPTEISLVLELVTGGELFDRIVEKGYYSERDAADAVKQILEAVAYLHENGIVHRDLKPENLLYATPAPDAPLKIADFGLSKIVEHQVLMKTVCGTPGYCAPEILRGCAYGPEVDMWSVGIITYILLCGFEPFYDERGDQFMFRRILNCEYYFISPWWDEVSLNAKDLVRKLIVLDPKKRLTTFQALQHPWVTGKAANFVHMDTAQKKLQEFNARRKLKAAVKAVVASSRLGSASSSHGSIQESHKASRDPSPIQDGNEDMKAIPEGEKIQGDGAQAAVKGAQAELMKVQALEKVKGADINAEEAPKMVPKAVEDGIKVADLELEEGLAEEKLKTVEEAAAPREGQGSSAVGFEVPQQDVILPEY

[10] = target: T2, Serine/threonine-protein kinase Sgk1 (Homo sapiens, UniProt O00141); assay: Inhibition of SGk
T2 sequence (O00141 whole entry): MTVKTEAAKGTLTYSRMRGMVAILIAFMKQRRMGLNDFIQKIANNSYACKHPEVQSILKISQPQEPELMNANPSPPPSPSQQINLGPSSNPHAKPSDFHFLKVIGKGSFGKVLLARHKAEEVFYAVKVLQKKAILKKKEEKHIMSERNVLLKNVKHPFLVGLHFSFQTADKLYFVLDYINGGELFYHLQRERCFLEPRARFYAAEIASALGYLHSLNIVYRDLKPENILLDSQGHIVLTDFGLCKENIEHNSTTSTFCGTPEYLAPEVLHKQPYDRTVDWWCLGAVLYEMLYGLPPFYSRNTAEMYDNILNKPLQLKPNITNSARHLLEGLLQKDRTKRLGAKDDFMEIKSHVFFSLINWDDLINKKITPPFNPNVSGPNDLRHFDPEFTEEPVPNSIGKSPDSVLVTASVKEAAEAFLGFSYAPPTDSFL

[11] = Half life in rat microsomes; type: ADME, Microsome; settings: liver microsomes
[12] = Inhibition of IGFR; set-up: species or system Homo sapiens
[13] = Inhibition of MAPKAPK; set-up: species or system Homo sapiens
Activated CDC42 kinase 1 = Activated CDC42 kinase 1 (Homo sapiens, UniProt Q07912); assay: Inhibition of CDC42
Chain of Activated CDC42 kinase 1 (Q07912 whole entry): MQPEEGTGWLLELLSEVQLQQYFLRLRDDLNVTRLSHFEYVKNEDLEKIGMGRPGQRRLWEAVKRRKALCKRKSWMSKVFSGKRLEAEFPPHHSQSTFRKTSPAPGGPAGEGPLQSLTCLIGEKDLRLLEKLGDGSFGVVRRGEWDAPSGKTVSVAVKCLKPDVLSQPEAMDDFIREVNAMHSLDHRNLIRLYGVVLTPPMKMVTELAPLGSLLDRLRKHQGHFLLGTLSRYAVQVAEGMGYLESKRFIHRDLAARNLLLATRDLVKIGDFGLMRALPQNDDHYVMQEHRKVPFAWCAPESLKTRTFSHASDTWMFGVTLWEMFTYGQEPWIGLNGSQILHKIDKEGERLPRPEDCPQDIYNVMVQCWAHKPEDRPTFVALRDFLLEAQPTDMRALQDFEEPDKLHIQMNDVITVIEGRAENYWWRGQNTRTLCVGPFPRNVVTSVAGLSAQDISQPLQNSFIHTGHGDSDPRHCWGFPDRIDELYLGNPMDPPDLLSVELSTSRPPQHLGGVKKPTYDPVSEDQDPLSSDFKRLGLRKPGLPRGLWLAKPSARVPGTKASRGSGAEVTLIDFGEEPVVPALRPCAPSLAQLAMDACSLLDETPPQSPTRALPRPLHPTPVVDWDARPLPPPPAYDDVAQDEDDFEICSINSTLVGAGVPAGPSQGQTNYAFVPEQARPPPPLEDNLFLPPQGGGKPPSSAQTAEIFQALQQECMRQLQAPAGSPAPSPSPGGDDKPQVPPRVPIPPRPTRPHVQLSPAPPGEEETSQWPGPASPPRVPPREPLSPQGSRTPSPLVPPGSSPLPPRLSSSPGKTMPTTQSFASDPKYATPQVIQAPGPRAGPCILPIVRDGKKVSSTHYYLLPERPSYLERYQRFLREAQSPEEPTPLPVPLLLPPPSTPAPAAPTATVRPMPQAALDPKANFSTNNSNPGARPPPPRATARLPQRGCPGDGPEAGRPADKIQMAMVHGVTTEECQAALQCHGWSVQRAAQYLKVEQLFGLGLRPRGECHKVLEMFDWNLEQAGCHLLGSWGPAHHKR

[14] = target: Mitogen-activated protein kinase 10 (Homo sapiens, UniProt P53779); assay: Inhibition of JNK3
Chain of Mitogen-activated protein kinase 10 (P53779 whole entry): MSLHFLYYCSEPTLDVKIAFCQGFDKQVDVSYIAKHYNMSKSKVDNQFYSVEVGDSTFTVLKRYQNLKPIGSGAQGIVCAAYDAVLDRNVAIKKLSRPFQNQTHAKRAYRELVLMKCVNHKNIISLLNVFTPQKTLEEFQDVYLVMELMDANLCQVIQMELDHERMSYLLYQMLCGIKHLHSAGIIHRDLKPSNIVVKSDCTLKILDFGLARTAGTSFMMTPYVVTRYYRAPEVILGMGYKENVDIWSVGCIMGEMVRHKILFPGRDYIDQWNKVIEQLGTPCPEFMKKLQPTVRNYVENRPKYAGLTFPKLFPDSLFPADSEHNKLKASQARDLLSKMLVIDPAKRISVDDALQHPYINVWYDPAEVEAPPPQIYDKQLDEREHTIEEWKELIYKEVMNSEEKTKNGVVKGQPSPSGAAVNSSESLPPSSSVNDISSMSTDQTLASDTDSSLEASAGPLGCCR

[15] = target: Voltage-gated inwardly rectifying potassium channel KCNH2 (Homo sapiens, UniProt Q12809); assay: Displacement of [3H]dofetilide from hERG
Chain of Voltage-gated inwardly rectifying potassium channel KCNH2 (Q12809 whole entry): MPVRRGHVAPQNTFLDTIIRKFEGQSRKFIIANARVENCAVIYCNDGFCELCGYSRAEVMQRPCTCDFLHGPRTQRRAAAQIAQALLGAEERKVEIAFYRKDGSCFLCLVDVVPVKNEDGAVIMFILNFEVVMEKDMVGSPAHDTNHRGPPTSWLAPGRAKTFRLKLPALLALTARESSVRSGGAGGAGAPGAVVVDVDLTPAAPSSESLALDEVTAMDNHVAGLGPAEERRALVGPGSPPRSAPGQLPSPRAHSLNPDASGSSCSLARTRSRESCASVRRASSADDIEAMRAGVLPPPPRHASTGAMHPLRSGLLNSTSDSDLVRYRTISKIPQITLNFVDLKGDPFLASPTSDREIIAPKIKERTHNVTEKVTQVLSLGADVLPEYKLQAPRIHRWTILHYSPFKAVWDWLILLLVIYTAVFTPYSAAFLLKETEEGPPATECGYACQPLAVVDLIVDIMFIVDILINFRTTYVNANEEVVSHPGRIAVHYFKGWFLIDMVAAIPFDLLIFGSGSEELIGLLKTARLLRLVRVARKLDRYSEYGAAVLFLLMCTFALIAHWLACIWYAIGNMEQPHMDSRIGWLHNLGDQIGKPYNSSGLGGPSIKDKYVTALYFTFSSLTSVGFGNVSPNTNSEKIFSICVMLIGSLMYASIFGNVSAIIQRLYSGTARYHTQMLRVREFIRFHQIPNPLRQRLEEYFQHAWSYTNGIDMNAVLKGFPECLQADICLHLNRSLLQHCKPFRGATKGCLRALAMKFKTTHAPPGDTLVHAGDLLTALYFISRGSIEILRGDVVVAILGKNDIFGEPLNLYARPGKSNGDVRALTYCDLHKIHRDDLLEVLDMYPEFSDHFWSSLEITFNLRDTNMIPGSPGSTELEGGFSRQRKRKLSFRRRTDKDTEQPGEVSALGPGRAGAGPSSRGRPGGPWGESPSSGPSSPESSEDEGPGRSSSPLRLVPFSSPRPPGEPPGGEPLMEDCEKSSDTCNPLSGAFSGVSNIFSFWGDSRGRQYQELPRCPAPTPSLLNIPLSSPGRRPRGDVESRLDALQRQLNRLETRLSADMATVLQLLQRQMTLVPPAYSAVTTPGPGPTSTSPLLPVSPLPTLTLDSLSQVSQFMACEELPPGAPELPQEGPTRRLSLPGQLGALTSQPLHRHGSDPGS

[16] = Half life in human microsomes; type: ADME, Microsome; settings: liver microsomes

Chain of Mitogen-activated protein kinase 8 (P45983 whole entry): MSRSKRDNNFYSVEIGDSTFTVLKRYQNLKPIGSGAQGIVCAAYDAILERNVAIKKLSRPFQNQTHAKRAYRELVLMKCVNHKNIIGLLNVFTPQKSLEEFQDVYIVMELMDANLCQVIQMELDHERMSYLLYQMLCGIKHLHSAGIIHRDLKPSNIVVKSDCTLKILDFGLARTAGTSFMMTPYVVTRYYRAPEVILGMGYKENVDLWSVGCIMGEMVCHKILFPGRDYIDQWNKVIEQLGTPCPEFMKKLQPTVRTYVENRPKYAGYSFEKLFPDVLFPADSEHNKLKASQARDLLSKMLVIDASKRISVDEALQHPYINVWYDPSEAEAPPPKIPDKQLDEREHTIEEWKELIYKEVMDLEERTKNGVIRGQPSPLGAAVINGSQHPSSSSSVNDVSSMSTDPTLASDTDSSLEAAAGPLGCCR
Chain of Mitogen-activated protein kinase 9 (P45984 whole entry): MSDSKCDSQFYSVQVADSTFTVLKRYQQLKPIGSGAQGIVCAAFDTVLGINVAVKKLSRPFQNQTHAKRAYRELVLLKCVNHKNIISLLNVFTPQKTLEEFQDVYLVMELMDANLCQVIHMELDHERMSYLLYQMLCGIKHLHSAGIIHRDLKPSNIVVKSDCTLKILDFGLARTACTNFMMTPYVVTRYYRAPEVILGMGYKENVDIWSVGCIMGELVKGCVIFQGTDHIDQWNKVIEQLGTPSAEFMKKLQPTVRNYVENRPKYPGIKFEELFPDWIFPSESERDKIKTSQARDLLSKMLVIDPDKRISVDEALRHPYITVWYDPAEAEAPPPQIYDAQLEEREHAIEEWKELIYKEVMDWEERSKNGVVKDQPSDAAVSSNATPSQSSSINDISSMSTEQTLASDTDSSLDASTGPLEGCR

Q: With `CCOc1nc(NCc2cc(OC)ccc2OC)cc(N)c1C#N` as the compound, how does the IC50 [1] read?
A: > 10000 nM

Q: For `CS(=O)(=O)c1ccc(CNC(=O)c2cc(N)c(C#N)c(Cl)n2)cc1`, which IC50 [2] is on record?
A: 4400 nM

Q: What about the IC50 [1] of the same compound?
A: 1500 nM

Q: Which half-life [3] does the source give for `CCOc1nc(C(=O)NCc2cccnc2)cc(N)c1C#N` here?
A: 0.5 h

Q: And the Cmax [4]?
A: 2920 ng/mL

Q: And the bioavailability [5]?
A: 32.7%

Q: What about the half-life [6] of the same compound?
A: 0.0833 h

Q: And the AUC [7]?
A: 3800 ng·h/mL

Q: Which results are given for `CCOc1nc(C(=O)NCc2cc(OC)ccc2OC)ccc1C#N`?
A: IC50 [1]: 230 nM; IC50 [8]: 2500 nM

Q: Which IC50 [2] does the source give for `CCOc1nc(C(=O)NCc2ccccc2)cc(N)c1C#N` here?
A: 190 nM

Q: What about the IC50 [1] of the same compound?
A: 270 nM

Q: What about the IC50 [8] of the same compound?
A: 1100 nM

Q: For `CCOc1nc(C(=O)NCc2ccc(-c3ccc(C(=O)O)cc3)nc2)cc(N)c1C#N`, which IC50 [2] is on record?
A: 11 nM

Q: What about the IC50 [1] of the same compound?
A: 4 nM

Q: What about the IC50 [8] of the same compound?
A: > 10000 nM

Q: Which results are given for `CCOc1nc(C(=O)NC)cc(N)c1C#N`?
A: IC50 [2]: 610 nM; IC50 [1]: 1200 nM; Ki [1]: 400 nM

Q: With `CCOc1nc(C(=O)NCc2cc(OC)ccc2OC)cc(N)c1C#N` as the compound, how does the IC50 [2] read?
A: 120 nM

Q: What about the IC50 [1] of the same compound?
A: 71 nM

Q: And the IC50 [8]?
A: 640 nM

Q: What does the source list for `CCOc1nc(C(=O)NCc2ccc(S(C)(=O)=O)cc2)cc(N)c1Cl`?
A: half-life [3]: 5.1 h; Ki [9]: > 8500 nM; Ki [10]: > 9400 nM; Cmax [4]: 1780 ng/mL; bioavailability [5]: 124%; half-life [11]: > 1 h; Ki [12]: > 1000 nM; Ki [13]: > 8400 nM; AUC [7]: 15400 ng·h/mL; Ki (Activated CDC42 kinase 1): > 9500 nM; IC50 [14]: 120 nM

Q: For `CCOc1nc(C(=O)NCc2ccccc2S(N)(=O)=O)cc(N)c1C#N`, which half-life [3] is on record?
A: 2.2 h

Q: What about the Cmax [4] of the same compound?
A: 1320 ng/mL

Q: What about the bioavailability [5] of the same compound?
A: 54.7%

Q: And the half-life [11]?
A: > 1 h

Q: And the IC50 [1]?
A: 12 nM

Q: And the AUC [7]?
A: 4000 ng·h/mL

Q: Which results are given for `CCOc1nc(C(=O)NCc2ccc(S(C)(=O)=O)cc2)ccc1C#N`?
A: IC50 [1]: 390 nM; IC50 [8]: 5800 nM

Q: With `CCOc1nc(C(=O)N(C)Cc2ccc(S(C)(=O)=O)cc2)cc(N)c1C#N` as the compound, how does the IC50 [2] read?
A: > 10000 nM

Q: And the IC50 [1]?
A: 6400 nM

Q: And the IC50 [8]?
A: > 10000 nM

Q: For `CCOc1nc(C(=O)NCc2ccc(S(C)(=O)=O)cc2)cc(N)c1C#N`, which half-life [3] is on record?
A: 3.4 h

Q: And the IC50 [15]?
A: > 100000 nM

Q: What about the Cmax [4] of the same compound?
A: 1020 ng/mL

Q: And the bioavailability [5]?
A: 38.8%

Q: And the half-life [11]?
A: > 1 h

Q: And the half-life [6]?
A: > 1 h

Q: And the AUC [7]?
A: 6320 ng·h/mL

Q: What about the half-life [16] of the same compound?
A: > 1 h

Q: Which results are given for `CC(C)Oc1nc(C(=O)NCc2ccc(S(C)(=O)=O)cc2)cc(N)c1Cl`?
A: IC50 [2]: 68 nM; IC50 [1]: 75 nM; IC50 [8]: 410 nM
